Experimental data reported in patent US20130045952A1, “ABA Receptor Agonists for Increased Plant Stress Resistance” (Van Andel Research Institute, priority 2011, published 2013).

Columns and labels:
Type in all cases: biochemical
His6-PYL2 / biotin-PP2C = target: T1, His6-PYL2 / biotin-PP2C (Arabidopsis thaliana, UniProt O80992); test: AlphaScreen luminescence proximity assay, PYL2-PP2C interaction; settings: 100 nM His6-PYL2, 100 nM biotin-PP2C, 100 μM agonist; normalized against a pyrabactin control
T1 construct: PYL2 (residues 14-188), and HAB1 (residues 172-511) were prepared as recombinant proteins in E. coli; made in house; host or cells: E. coli
T1 sequence (O80992 14-188): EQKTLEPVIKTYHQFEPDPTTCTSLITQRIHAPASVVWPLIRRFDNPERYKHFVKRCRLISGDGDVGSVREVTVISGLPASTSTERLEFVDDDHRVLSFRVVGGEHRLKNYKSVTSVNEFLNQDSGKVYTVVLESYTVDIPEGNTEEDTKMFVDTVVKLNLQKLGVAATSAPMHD
Method: (§1) Mutant proteins were expressed as H6GST-fusion proteins and purified by glutathione sepharose chromatography. Protein-protein interactions were determined by luminescence proximity AlphaScreen assay. Biotinylated PP2C proteins for the luminescence proximity assay were generated by in vivo biotinylation of avitag-PP2C fusion proteins. PP2C phosphatase activity was measured by phosphate release from a SnRK2.6 phosphoprotein.
(§2) Interactions between PYR/PYL and PP2Cs were assessed by luminescence-proximity AlphaScreen technology (Perkin Elmer). Briefly, biotinylated PP2Cs were attached to streptavidin-coated donor beads, and H6-tagged PYR/PYL receptors were attached to nickel-chelated acceptor beads. The donor and acceptor beads were brought into proximity by the interactions between PYR/PYLs and PP2Cs, which were measured with and without ligands. When excited by a laser beam of 680 nm, the donor beam emits singlet oxygen that activates thioxene derivatives in the acceptor beads, which releases photons of 520-620 nm as the binding signal. The experiments were conducted with 100 nM of PP2Cs and PYR/PYL proteins in the presence of 5 ug/ml donor and acceptor beads in a buffer of 50 mM MOPS, pH7.4, 50 mM NaF, […], and 0.1 mg/ml bovine serum albumin. The results were based on an average of three experiments with standard errors typically less than 10% of the measurements.
(§3) Values were determined in different experiments and normalized against a pyrabactin control. Blank spaces mean no experimental data is available. Key (photon counts (binding signal units) in Alphascreen luminescence proximity assay): “+++ is >75,000; ++ is 25,000−75,000; + is <25,000.

His6-PYL3 / biotin-PP2C = target: T2, His6-PYL3 / biotin-PP2C (Arabidopsis thaliana, UniProt Q9SSM7); test: AlphaScreen luminescence proximity assay, PYL3-PP2C interaction; settings: 100 nM His6-PYL3, 100 nM biotin-PP2C, 100 μM agonist; normalized against a pyrabactin control
T2 construct: made in house; host or cells: not expressly stated for PYL3
T2 sequence (Q9SSM7 1-209): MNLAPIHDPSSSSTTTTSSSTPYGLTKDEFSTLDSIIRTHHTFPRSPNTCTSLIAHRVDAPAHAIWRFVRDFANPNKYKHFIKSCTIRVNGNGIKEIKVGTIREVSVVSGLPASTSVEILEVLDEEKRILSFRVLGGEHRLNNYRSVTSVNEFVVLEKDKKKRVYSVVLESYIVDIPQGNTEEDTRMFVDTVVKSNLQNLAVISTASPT
Method: as §1, §2, §3

His6-PYR1 / biotin-PP2C = target: T3, His6-PYR1 / biotin-PP2C (Arabidopsis thaliana, UniProt O49686); test: AlphaScreen luminescence proximity assay, PYR1-PP2C interaction; settings: 100 nM His6-PYR1, 100 nM biotin-PP2C, 100 μM agonist; normalized against a pyrabactin control
T3 construct: made in house; host or cells: E. coli is stated for PYL1, PYL2 and the PP2Cs, not expressly for PYR1
T3 sequence (O49686 1-191): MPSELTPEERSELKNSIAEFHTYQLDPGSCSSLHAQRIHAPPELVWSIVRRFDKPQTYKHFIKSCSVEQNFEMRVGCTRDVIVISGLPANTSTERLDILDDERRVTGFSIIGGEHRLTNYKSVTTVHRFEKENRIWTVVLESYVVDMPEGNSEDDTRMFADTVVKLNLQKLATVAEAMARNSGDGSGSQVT
Method: as §1, §2, §3

His6-PYL1 / biotin-PP2C = target: T4, His6-PYL1 / biotin-PP2C (Arabidopsis thaliana, UniProt Q8VZS8); test: AlphaScreen luminescence proximity assay, PYL1-PP2C interaction; settings: 100 nM His6-PYL1, 100 nM biotin-PP2C, 100 μM agonist; normalized against a pyrabactin control
T4 construct: PYL1 (residues 36-211), PYL2 (residues 14-188), and HAB1 (residues 172-511) were prepared as recombinant proteins in E. coli; made in house; host or cells: E. coli
T4 sequence (Q8VZS8 36-211): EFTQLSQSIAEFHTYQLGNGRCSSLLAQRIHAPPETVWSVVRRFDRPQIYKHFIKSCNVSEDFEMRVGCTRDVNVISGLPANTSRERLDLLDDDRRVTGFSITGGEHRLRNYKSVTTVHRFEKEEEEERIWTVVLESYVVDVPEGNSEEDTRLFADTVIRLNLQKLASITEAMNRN
Method: as §1, §2, §3

ABI2 = target: T5, ABI2 (Arabidopsis thaliana, UniProt O04719+O49686); test: PP2C phosphatase activity assay, ABI2; settings: 200 nM PP2C; SnRK2.6 phosphopeptide substrate; None = 100
T5 construct: ABI1 (residues 117-434) and ABI2 (residues 101-423) were expressed as H6Sumo fusion proteins; H6Sumo (N); made in house; host or cells: E. coli BL21
T5 sequence (O04719 101-423 limits assumed): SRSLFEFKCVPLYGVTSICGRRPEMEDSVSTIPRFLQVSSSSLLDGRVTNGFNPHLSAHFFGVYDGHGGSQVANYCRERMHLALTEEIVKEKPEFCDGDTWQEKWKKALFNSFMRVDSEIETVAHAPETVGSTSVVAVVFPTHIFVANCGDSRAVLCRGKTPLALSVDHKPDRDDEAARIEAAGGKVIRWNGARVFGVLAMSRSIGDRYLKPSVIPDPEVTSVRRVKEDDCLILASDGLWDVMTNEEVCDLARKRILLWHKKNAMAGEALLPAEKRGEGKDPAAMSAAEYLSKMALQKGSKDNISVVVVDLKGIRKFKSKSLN
T5 sequence (O49686 1-191): T3 sequence (O49686 1-191)
Method: as §1
(§4) PP2Cs and PYR/PYL proteins were pre-incubated at the indicated concentrations in 50 mM imidazole, pH 7.2, 5 mM MgCl2, 0.1% β-mercaptoethanol and 0.5 mg/ml BSA for 30 min at room temperature. Reactions were started by addition of 100 μM of a phosphopeptide corresponding to amino acids 170-180 of SnRK2.6 (HSQPK^pSTVGTP). This peptide is phosphorylated at a single residue corresponding to Ser175 in SnRK2.6, whose phosphorylation is required for SnRK2.6 kinase activity^32. Phosphate release from ^pS175 from the phosphopeptide was determined by colorimetric assay (BioVision).

His6-PYR1 / biotin-ABI2 = target: T6, His6-PYR1 / biotin-ABI2 (Arabidopsis thaliana, UniProt O49686); test: AlphaScreen dose response, PYR1-ABI2 interaction; settings: 100 nM His6-PYR1, 100 nM biotin-PP2C, 0-100 μM agonist; from dose response curves
T6 construct: made in house; host or cells: E. coli (stated for the PP2Cs; not expressly for PYR1)
T6 sequence (O49686 1-191): T3 sequence (O49686 1-191)
T6 sequence (O04719 101-423 partner limits assumed): T5 sequence (O04719 101-423 limits assumed)
Method: as §2
(§5) The results shown in Table 5b were calculated from the dose response curves of the dependence of the interaction between 100 nM His6-PYR1 and 100 nM biotin-PP2C on the presence of 0-100 μM agonists determined by AlphaScreen luminescence proximity assay. Key (EC50 in μM): ++++=<5.0 μM; +++=5-10 μM; ++=10-20 μM; and +=>20-60 μM.

ABI1 = target: T7, ABI1 (Arabidopsis thaliana, UniProt O49686+P49597); test: PP2C phosphatase activity assay, ABI1; settings: 200 nM PP2C; SnRK2.6 phosphopeptide substrate; None = 100
T7 construct: ABI1 (residues 117-434) and ABI2 (residues 101-423) were expressed as H6Sumo fusion proteins; H6Sumo (N); made in house; host or cells: E. coli BL21
T7 sequence (P49597 117-434 limits assumed): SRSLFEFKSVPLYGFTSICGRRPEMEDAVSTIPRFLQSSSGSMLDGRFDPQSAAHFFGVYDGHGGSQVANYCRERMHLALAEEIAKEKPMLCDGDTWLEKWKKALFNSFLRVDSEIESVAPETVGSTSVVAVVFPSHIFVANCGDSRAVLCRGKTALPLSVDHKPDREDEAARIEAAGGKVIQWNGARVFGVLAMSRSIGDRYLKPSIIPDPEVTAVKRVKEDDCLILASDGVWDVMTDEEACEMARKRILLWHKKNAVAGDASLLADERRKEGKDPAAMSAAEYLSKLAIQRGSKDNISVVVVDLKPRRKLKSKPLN
T7 sequence (O49686 1-191): T3 sequence (O49686 1-191)
Method: as §1, §4

His6-PYR1 / biotin-ABI1 = target: T8, His6-PYR1 / biotin-ABI1 (Arabidopsis thaliana, UniProt O49686); test: AlphaScreen dose response, PYR1-ABI1 interaction; settings: 100 nM His6-PYR1, 100 nM biotin-PP2C, 0-100 μM agonist; from dose response curves
T8 construct: made in house; host or cells: E. coli (stated for the PP2Cs; not expressly for PYR1)
T8 sequence (O49686 1-191): T3 sequence (O49686 1-191)
T8 sequence (P49597 117-434 partner limits assumed): T7 sequence (P49597 117-434 limits assumed)
Method: as §2, §5

HAB1 = target: T9, HAB1 (Arabidopsis thaliana, UniProt O49686+Q9CAJ0); test: PP2C phosphatase activity assay, HAB1; settings: 200 nM PP2C; SnRK2.6 phosphopeptide substrate; None = 100
T9 construct: HAB1 (residues 172-511) were prepared as recombinant proteins in E. coli; H6GST or H6Sumo; made in house; host or cells: E. coli
T9 sequence (Q9CAJ0 172-511 limits assumed): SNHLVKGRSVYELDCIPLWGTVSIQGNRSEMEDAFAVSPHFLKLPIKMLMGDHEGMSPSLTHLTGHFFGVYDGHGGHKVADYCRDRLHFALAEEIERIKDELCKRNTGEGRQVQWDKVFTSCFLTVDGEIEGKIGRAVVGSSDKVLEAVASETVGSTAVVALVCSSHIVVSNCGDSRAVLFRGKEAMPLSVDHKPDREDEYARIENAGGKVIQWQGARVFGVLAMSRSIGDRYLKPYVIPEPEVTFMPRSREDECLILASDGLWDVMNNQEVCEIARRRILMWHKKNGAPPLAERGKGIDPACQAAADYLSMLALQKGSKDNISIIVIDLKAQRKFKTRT
T9 sequence (O49686 1-191): T3 sequence (O49686 1-191)
Method: as §1, §4

His6-PYR1 / biotin-HAB1 = target: T10, His6-PYR1 / biotin-HAB1 (Arabidopsis thaliana, UniProt O49686); test: AlphaScreen dose response, PYR1-HAB1 interaction; settings: 100 nM His6-PYR1, 100 nM biotin-PP2C, 0-100 μM agonist; from dose response curves
T10 construct: made in house; host or cells: E. coli (stated for the PP2Cs; not expressly for PYR1)
T10 sequence (O49686 1-191): T3 sequence (O49686 1-191)
T10 sequence (Q9CAJ0 172-511 partner limits assumed): T9 sequence (Q9CAJ0 172-511 limits assumed)
Method: as §2, §5

| Stimulation of the interaction between PYL2 and PP2C (binding signal) (His6-PYL2 / biotin-PP2C) | Stimulation of the interaction between PYL3 and PP2C (binding signal) (His6-PYL3 / biotin-PP2C) | Stimulation of the interaction between PYR1 and PP2C (binding signal) (His6-PYR1 / biotin-PP2C) | Stimulation of the interaction between PYL1 and PP2C (binding signal) (His6-PYL1 / biotin-PP2C) | % Phosphatase Activity ABI2 (ABI2) [%] | EC50 (His6-PYR1 / biotin-ABI2) [µM] | % Phosphatase Activity ABI1 (ABI1) [%] | EC50 (His6-PYR1 / biotin-ABI1) [µM] | % Phosphatase Activity HAB1 (HAB1) [%] | EC50 (His6-PYR1 / biotin-HAB1) [µM] | SMILES |
| --- | --- | --- | --- | --- | --- | --- | --- | --- | --- | --- |
| + (+ is <25,000) | ++ (++ is 25,000−75,000) | + (+ is <25,000) | – | – | – | – | – | – | – | O=S(=O)(NCCOc1ccccc1)c1ccc2ccccc2c1 [Compound 8] |
| ++ (++ is 25,000−75,000) | + (+ is <25,000) | ++ (++ is 25,000−75,000) | ++ (++ is 25,000−75,000) | – | – | – | – | – | – | CC(C)c1ccccc1OCCNS(=O)(=O)c1ccc2ccccc2c1 [Compound 7] |
| ++ (++ is 25,000−75,000) | + (+ is <25,000) | + (+ is <25,000) | + (+ is <25,000) | – | – | – | – | – | – | CCOC(=O)C1OC(NC(=O)CSc2nnc(-c3ccccc3OCC)o2)C(C#N)C1C (stereo not drawn) [Compound 5] |
| + (+ is <25,000) | +++ (+++ is >75,000) | ++ (++ is 25,000−75,000) | – | 7.0 ± 0.3 | < 5 | 7.7 ± 4.3 | < 5 | 17.5 ± 0.6 | < 5 | CSCCCC(NS(=O)(=O)c1ccc(Br)c2ccccc12)C(=O)O (stereo not drawn) [Compound 3] |
| ++ (++ is 25,000−75,000) | ++ (++ is 25,000−75,000) | + (+ is <25,000) | + (+ is <25,000) | – | – | – | – | – | – | CC(=O)c1cccc(N/C=C/C(=O)c2ccc(Cl)c(Cl)c2)c1 [Compound 15] |
| + (+ is <25,000) | + (+ is <25,000) | + (+ is <25,000) | – | – | – | – | – | – | – | CCCCOc1cccc(C(=O)NC(=S)Nc2ccc(S(N)(=O)=O)cc2)c1 [Compound 9] |
